According to patent publication US7482347B2, “Piperazine derivatives with CCR-3 inhibiting activity” (priority 2004, dated 2009):

Target: T1, human CCR-3 (Homo sapiens, UniProt P51677)
T1 construct: expressed in transfected cells; membranes prepared
T1 sequence (P51677 1-355): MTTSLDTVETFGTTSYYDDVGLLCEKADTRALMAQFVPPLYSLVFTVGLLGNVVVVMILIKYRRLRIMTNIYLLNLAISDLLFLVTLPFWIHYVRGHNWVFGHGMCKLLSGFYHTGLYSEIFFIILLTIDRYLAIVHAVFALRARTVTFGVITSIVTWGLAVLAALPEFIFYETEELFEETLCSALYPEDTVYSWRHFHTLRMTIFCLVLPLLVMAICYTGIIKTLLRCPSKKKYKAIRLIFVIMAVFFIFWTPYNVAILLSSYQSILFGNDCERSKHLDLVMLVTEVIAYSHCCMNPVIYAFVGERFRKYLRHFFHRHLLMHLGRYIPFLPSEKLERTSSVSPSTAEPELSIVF
Assay: [125I]-human eotaxin binding SPA assay on membranes of RBL-2H3 cells stably expressing CCR3
Conditions: membranes of RBL-2H3 cells expressing CCR3, 50 pM [125I]-human eotaxin, 4 hours at room temperature, read-out: IC50 (inhibition of binding of [125I]-human eotaxin to CCR-3)
Excerpt: Recombinant cells expressing human CCR-3 are captured by wheatgerm agglutinin (WGA) polyvinyltoluidene (PVT) SPA beads (available from Amersham), through a specific interaction between the WGA and carbohydrate residues of glycoproteins on the surface of the cells. [^125I]-human eotaxin (available from Amersham) binds specifically to CCR-3 receptors bringing the [^125I]-human eotaxin in close proximity to the SPA beads. Emitted â-particles from the [^125I]-human eotaxin excite, by its proximity, the fluorophore in the beads and produce light.
Preparation of Assay Buffer: 5.96 g HEPES and 7.0 g sodium chloride are dissolved in distilled water and 1 M aqueous CaCl2 (1 ml) and 1M aqueous MgCl2 (5 ml) are added. The pH is adjusted to 7.6 with NaOH and the solution made to a final volume of 1 l using distilled water. 5 g bovine serum albumin and 0.1 g sodium azide are then dissolved in the solution and the resulting buffer stored at 4° C. A COMPLETE™ protease inhibitor cocktail tablet (available from Boehringer) is added per 50 ml of the buffer on the day of use. […]
The assay is performed in a final volume of 250 μl per well of an OPTIPLATE™ microplate (ex Canberra Packard). […] The resulting scintillations are counted using a Canberra Packard TopCount, each well being counted for 1 minute. […]

SMILES | IC50
Cc1noc(C)c1S(=O)(=O)N1CCC(CN2CCN(Cc3ccc(F)cc3)CC2)CC1 [Example 1, 1-[1-(3,5-Dimethylisoxazole-4-sulfonyl)-piperdin-4-yl-methyl]-4-(4-fluorobenzyl)-piperazine] | 257 nM
COc1ccc(OC)c(S(=O)(=O)N2CCC(CN3CCN(Cc4ccc(F)cc4)CC3)CC2)c1 [Example 3, 1-[1-(2,5-dimethoxybenzenesulfonyl)piperidinyl-4-ylmethyl]-4-(4-fluorobenzyl)piperazine] | 56 nM
